Assay results published in ChEMBL document CHEMBL1144521, “Design, synthesis and biological activity of selective and orally available TF/FVIIa complex inhibitors containing non-amidine P1 ligands” (Bioorg Med Chem, 2007).
Blank lines part the entries; values can stand above or below the molecule they belong to.

Assays:
[1] = test system: Plasma; assay: Anticoagulant potency in human citreated plasma assessed as concentration required to double activated partial thromboplastin time; type: functional
[2] = biological target: T1, Coagulation factor VII (Homo sapiens, UniProt P08709); assay: Inhibition of human TF/FVIIa complex by chromogenic assay
T1 sequence (P08709 whole entry): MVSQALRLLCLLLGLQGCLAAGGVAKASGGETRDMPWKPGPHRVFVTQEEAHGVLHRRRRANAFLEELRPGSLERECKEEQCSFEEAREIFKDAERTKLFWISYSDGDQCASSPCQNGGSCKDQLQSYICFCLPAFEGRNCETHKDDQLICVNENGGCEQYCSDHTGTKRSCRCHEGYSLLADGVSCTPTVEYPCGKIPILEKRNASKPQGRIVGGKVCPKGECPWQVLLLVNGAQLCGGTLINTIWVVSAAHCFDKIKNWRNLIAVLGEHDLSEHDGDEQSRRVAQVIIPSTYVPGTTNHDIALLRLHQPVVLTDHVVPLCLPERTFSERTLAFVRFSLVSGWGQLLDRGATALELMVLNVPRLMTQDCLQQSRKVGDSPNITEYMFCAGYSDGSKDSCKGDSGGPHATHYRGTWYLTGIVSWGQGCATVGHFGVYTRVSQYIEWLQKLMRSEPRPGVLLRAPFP

[3] = biological target: Coagulation factor X (Homo sapiens, UniProt P00742); assay: Inhibition of human Fxa by chromogenic assay
Sequence of Coagulation factor X (P00742 41-179 limits assumed): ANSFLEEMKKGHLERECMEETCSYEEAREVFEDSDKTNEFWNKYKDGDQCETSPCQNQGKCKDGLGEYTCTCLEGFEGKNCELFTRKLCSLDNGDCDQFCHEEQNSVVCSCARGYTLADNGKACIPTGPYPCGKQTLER
Sequence of Coagulation factor X (P00742 235-488 limits assumed): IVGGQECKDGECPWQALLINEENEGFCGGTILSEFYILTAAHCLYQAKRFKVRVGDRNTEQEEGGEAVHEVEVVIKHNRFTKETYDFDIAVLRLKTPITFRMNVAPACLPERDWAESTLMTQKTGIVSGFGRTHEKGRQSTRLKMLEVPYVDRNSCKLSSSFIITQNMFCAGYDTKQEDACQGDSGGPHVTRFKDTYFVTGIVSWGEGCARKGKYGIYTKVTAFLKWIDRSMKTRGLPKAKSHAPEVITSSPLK

[4] = biological target: Prothrombin (Homo sapiens, UniProt P00734); assay: Inhibition of human thrombin by chromogenic assay
[5] = test system: Plasma; assay: Anticoagulant potency in human citreated plasma assessed as concentration required to double prothrombin time; type: functional
[6] = biological target: Trypsin (Homo sapiens, UniProt P07477+P07478+P35030); assay: Inhibition of human trypsin by chromogenic assay; type: protein assay
[7] = test system: Cynomolgus monkey; assay: Effect on bleeding time in cynomolgus monkey at 30 mg/kg, iv; type: functional, Macaca fascicularis
[8] = test system: Cynomolgus monkey; assay: Prolongation of prothrombin time in cynomolgus monkey citreated blood at 30 mg/kg, iv; type: functional, Macaca fascicularis
[9] = Plasma concentration in ICR mouse at 100 mg/kg, po after 4 hrs by TF/FVIIa inhibition assay; type: ADME, organism-based; parameters: dose 100 mg/kg, route oral
[10] = test system: Cynomolgus monkey; assay: Prolongation of prothrombin time in cynomolgus monkey citreated blood at 10 mg/kg, iv; type: functional, Macaca fascicularis
[11] = test system: Cynomolgus monkey; assay: Effect on bleeding time in cynomolgus monkey at 3 mg/kg, iv; type: functional, Macaca fascicularis
[12] = Plasma concentration in ICR mouse at 300 mg/kg, po after 0.5 hrs by TF/FVIIa inhibition assay; type: ADME, organism-based; parameters: dose 300 mg/kg, route oral
[13] = test system: Cynomolgus monkey; assay: Effect on activated partial thromboplastin time in cynomolgus monkey citreated blood at 3 mg/kg, iv; type: functional, Macaca fascicularis
[14] = test system: Cynomolgus monkey; assay: Effect on activated partial thromboplastin time in cynomolgus monkey citreated blood at 30 mg/kg, iv; type: functional, Macaca fascicularis
[15] = test system: Cynomolgus monkey; assay: Prolongation of prothrombin time in cynomolgus monkey citreated blood at 3 mg/kg, iv; type: functional, Macaca fascicularis
[16] = test system: Cynomolgus monkey; assay: Effect on bleeding time in cynomolgus monkey at 10 mg/kg, iv; type: functional, Macaca fascicularis
[17] = test system: Cynomolgus monkey; assay: Effect on activated partial thromboplastin time in cynomolgus monkey citreated blood at 10 mg/kg, iv; type: functional, Macaca fascicularis
[18] = Plasma concentration in ICR mouse at 300 mg/kg, po after 2 hrs by TF/FVIIa inhibition assay; type: ADME, organism-based; parameters: dose 300 mg/kg, route oral
[19] = Plasma concentration in ICR mouse at 100 mg/kg, po after 0.5 hrs by TF/FVIIa inhibition assay; type: ADME, organism-based; parameters: dose 100 mg/kg, route oral
[20] = Plasma concentration in ICR mouse at 100 mg/kg, po after 2 hrs by TF/FVIIa inhibition assay; type: ADME, organism-based; parameters: dose 100 mg/kg, route oral

IC50 [2]: 4.2 µM
SMILES: CC(C)C[C@H](NC(=O)c1ccc(-c2ccccc2C(=O)Nc2cccc(C(N)=O)c2)c(C(=O)O)c1)C(N)=O

IC50 [2]: 2.4 µM
SMILES: CC(C)C[C@H](NC(=O)c1ccc(-c2ccccc2C(=O)Nc2cccc(C(N)=O)c2)c(C(=O)O)c1)C(=O)O

IC50 [2]: 191 µM
SMILES: CC(C)C[C@H](CO)NC(=O)c1ccc(-c2ccccc2C(=O)Nc2cccc(C(N)=O)c2)c(C(=O)O)c1

IC50 [2]: 0.089 µM | IC50 [3]: 0.88 µM | IC50 [4]: > 200 µM | concentration at 0.5 h [12]: 300 ng/mL | concentration at 2 h [18]: 160 ng/mL | IC50 [6]: 4.8 µM
SMILES: CC(C)CNC(=O)c1ccc(-c2ccccc2C(=O)Nc2ccc(C(=N)N)cc2)c(C(=O)O)c1
Activity [1]: 4.3 µM | Activity [5]: 4.2 µM

IC50 [2]: 19 µM
SMILES: CC(C)CCNC(=O)c1ccc(-c2ccccc2C(=O)Nc2cccc(C(N)=O)c2)c(C(=O)O)c1

IC50 [2]: 19 µM
SMILES: CC(C)CNC(=O)c1ccc(-c2ccccc2C(=O)Nc2cccc(C(N)=O)c2)c(C(=O)O)c1

IC50 [2]: 0.69 µM | IC50 [3]: > 200 µM | IC50 [4]: > 200 µM | IC50 [6]: 4.8 µM
SMILES: CNc1ccc(-c2ccc(C(=O)NCC(C)C)cc2C(=O)O)c(C(=O)Nc2cccc(C(N)=O)c2)c1
Activity [1]: >300 µM | Activity [5]: 150 µM

IC50 [2]: 4.2 µM
SMILES: CNC(=O)[C@H](CC(C)C)NC(=O)c1ccc(-c2ccccc2C(=O)Nc2cccc(C(N)=O)c2)c(C(=O)O)c1

IC50 [2]: 8.5 µM
SMILES: CC(C)C[C@@H](CO)NC(=O)c1ccc(-c2ccccc2C(=O)Nc2cccc(C(N)=O)c2)c(C(=O)O)c1

Continued, molecule first:

SMILES: CNc1ccc(-c2ccc(C(=O)N[C@@H](CC(C)C)C(=O)O)cc2C(=O)O)c(C(=O)Nc2cccc(C(N)=O)c2)c1
Activity [1]: >300 µM | IC50 [2]: 0.15 µM | IC50 [3]: > 200 µM | IC50 [4]: > 200 µM | Activity [5]: 33 µM | IC50 [6]: > 200 µM

SMILES: CC(C)C[C@H](NC(=O)c1ccc(-c2ccccc2C(=O)Nc2cccc(C(N)=O)c2)c(C(=O)O)c1)C(=O)N(C)C
IC50 [2]: 3.2 µM

SMILES: CNc1ccc(-c2ccc(C(=O)N[C@@H](CC(C)C)C(N)=O)cc2C(=O)O)c(C(=O)Nc2ccc(CN)cc2)c1
Activity [1]: >300 µM | IC50 [2]: 0.59 µM | Activity [7]: 3.7 min | PT [8]: 38.4 s | IC50 [3]: > 200 µM | concentration at 4 h [9]: 130 ng/mL | PT [10]: 24.5 s | IC50 [4]: > 200 µM | Activity [11]: 3.5 min | concentration at 0.5 h [12]: 1800 ng/mL | Activity [5]: 47 µM | APTT [13]: 29.1 s | APTT [14]: 35 s | PT [15]: 15.1 s | Activity [16]: 2.7 min | APTT [17]: 32.2 s | IC50 [6]: > 200 µM

SMILES: CC(C)C[C@H](NC(=O)c1ccc(-c2ccc(NC(C)C)cc2C(=O)Nc2cccc(C(N)=O)c2)c(C(=O)O)c1)C(N)=O
IC50 [2]: 0.86 µM

SMILES: CCCCNc1ccc(-c2ccc(C(=O)N[C@@H](CC(C)C)C(N)=O)cc2C(=O)O)c(C(=O)Nc2cccc(C(N)=O)c2)c1
IC50 [2]: 2.2 µM

SMILES: CNc1ccc(-c2ccc(C(=O)N[C@H](CO)CC(C)C)cc2C(=O)O)c(C(=O)Nc2cccc(C(N)=O)c2)c1
IC50 [2]: 0.3 µM

SMILES: CC(C)C[C@H](NC(=O)c1ccc(-c2ccc(NC3CCCCC3)cc2C(=O)Nc2cccc(C(N)=O)c2)c(C(=O)O)c1)C(N)=O
IC50 [2]: 91 µM

SMILES: CCNc1ccc(-c2ccc(C(=O)N[C@@H](CC(C)C)C(N)=O)cc2C(=O)O)c(C(=O)Nc2cccc(C(N)=O)c2)c1
IC50 [2]: 0.3 µM

SMILES: CNc1ccc(-c2ccc(C(=O)N[C@H](CO)CC(C)C)cc2C(=O)O)c(C(=O)Nc2ccc(CN)cc2)c1
IC50 [2]: 1.3 µM

SMILES: CNc1ccc(-c2ccc(C(=O)N[C@@H](CC(C)C)C(N)=O)cc2C(=O)O)c(C(=O)Nc2cccc(C(N)=O)c2)c1
Activity [1]: >300 µM | IC50 [2]: 0.18 µM | IC50 [3]: > 200 µM | IC50 [4]: > 200 µM | Activity [5]: 20 µM | concentration at 0.5 h [19]: 280 ng/mL | concentration at 2 h [20]: 210 ng/mL | IC50 [6]: > 200 µM
